In brackets after ≈: the same amount, converted by molar mass. Where two headings read alike, the source gives them in different places.
Tests used:
awake dogs = test: increase of coronary blood flow velocity (CBFv) in awake dogs, potency versus adenosine (background statement); assay type: in vivo; conditions: relative to adenosine
[1] = tested on: subjects (26 men, 9 women); test: Example 6: stress/rest SPECT myocardial perfusion imaging, adenosine versus CVT-3146; assay type: in vivo, human
Protocol: To determine the ability of CVT-3146 to produce coronary hyperemia and accurately detect CAD, 35 subjects (26 men, 9 women; 67±10 years) underwent both A and CVT-3146 stress/rest MPI, with 10.0±9.1 days between studies. […] CVT-3146 [400 mcg (n=18), 500 mcg (n=17)] was administered as an IV bolus immediately followed by a saline flush, and then a Tc-99m radiopharmaceutical [sestamibi (n=34), tetrofosmin (n=1)]. SPECT images were uniformly processed, intermixed with control studies (normal and fixed-only defects), and interpreted by three observers in a blinded fashion using a 17-segment model. Quantitative analysis was also performed using 4D MSPECT. In addition to three separate readings, a consensus interpretation was performed and then a direct, same-screen comparison of A and CVT-3146 images undertaken to determine relative differences, using 5 regions per study.

awake rats = test: Example 5: sympathoexcitation, heart rate, blood pressure and plasma catecholamines after i.v. bolus; assay type: in vivo
Protocol: The present study was carried out to determine whether CVT-3146, a selective A2A adenosine receptor agonist, causes sympathoexcitation. CVT-3146 (0.31µg/kg-50 µg/kg) was given as a rapid i.v. bolus to awake rats and heart rate (HR) and blood pressure (BP) were monitored. CVT-3146 caused an increase in BP and systolic pressure (SP) at lower doses while at higher doses there was a decrease in BP and SP. […] The increase in HR was evident at the lowest dose of CVT-3146 at which there was no appreciable decrease in BP. ZM241385 (30 µg/kg , N=5), an A2A receptor antagonist, attenuated the decrease in BP (CVT-3146: 14±3%, ZM: 1±1 %) and the increase in HR (CVT: 27±3%, ZM: 18±3%) caused by CVT-3146. Pretreatment with metoprolol (MET, 1 mg/kg, n=5), a beta-blocker, attenuated the increase in HR (CVT: 27±3%, MET: 15±2%), but had no effect on hypotension caused by CVT-3146. In the presence of hexamethonium (HEX, 10 mg/kg, n=5), a ganglionic blocker, the tachycardia was prevented (CVT: 27±3%, HEX: -1±2%), but BP was further reduced (CVT: -11±2%, HEX: -49±5%).

[2] = Example 3: pharmacokinetic profile after a single IV bolus, three-compartment open model; assay type: in vivo, human; conditions: for Vc / Vd / half-life / clearance: Mean (SD); for Vd / half-life / clearance: intravenous; for Vd: read-out: Vss
Protocol: (§1) This Example is a study performed to evaluate (1) the maximum tolerated dose of CVT-3146 and (2) the pharmacokinetic profile of CVT-3146 in healthy volunteers, after a single IV bolus dose.
(§2) CVT-3146 was administered as an IV bolus (20 seconds) in ascending doses of […], 10, 20 and 30 µg/kg.
(§3) Patient safety was monitored by ECG, laboratory assessments, and collection of vital signs and adverse events. Pharmacokinetics: • Plasma samples were drawn during supine phase (Days 1 and 2) at 0, 1, 2, 3, 4, 5, 7,10, 15, 20, 30, 45 minutes after dosing and at 1, 1.5., 2, 4, 6, 8,12 and 24 hours after dosing. Urine was collected for 24 hours for […] excretion. Pharmacodynamics: • The study evaluated the relationship of changes in heart rate to dose in both standing and supine positions and plasma concentration in the supine position.
A three-compartment open model was fit to the data using observed Tmax (1-4 minutes) as the duration of a zero-order infusion. Reliable parameter estimates were obtained for dose of 1-30 µg/kg. Parameters are summarized in the following (Table 2): Table 2

healthy volunteers = test: Example 3: maximum tolerated dose and safety after a single IV bolus, supine and standing; assay type: in vivo
Protocol: as §1
The study was performed using thirty-six healthy, non-smoking male subjects between the ages of 18 and 59 and within 15% of ideal body weight
The study was performed in phase 1, single center, double-blind, randomized, placebo-controlled, crossover, ascending dose study. Randomization was to CVT-3146 or placebo, in both supine and standing positions.
as §2
Subjects received either CVT-3146 or placebo on Day 1 supine, then crossover treatment on Day 2 supine. On Day 3, subjects received CVT-3146 or placebo standing, then crossover treatment on Day 4 standing.
as §3

solubility in water = assay type: physicochemical
Protocol: CVT-3146 has solubility in water of about 50 micrograms/mL. Therefore, CVT-3146 can be dissolved and administered in water so long as the desired weight amount of CVT-3146 can be administered in an acceptable volume. For example, a preferred dose of about 400 micrograms can be administered in 8 mL of water. If this volume is too great for administration purposes, or if the pharmaceutical composition will be stored at other than room temperature (RT), then additional ingredients can be added to the composition to increase the solubility of CVT-3146 in the composition and/or to provide the resulting pharmaceutical composition with other improved properties such as improved stability and storage properties. Pharmaceutical compositions of this invention may include up to about 1 milligram/mL of CVT-3146. It is preferred that pharmaceutical compositions including CVT-3146 include from 50 to 250 micrograms/mL, and more preferably from 50 to 150 micrograms/mL of CVT-3146.

[3] = direct comparison of A and CVT-3146 images, 5 regions per study
[4] = severe in intensity, 20 µg/kg Standing, 4 subjects per group

For CNC(=O)c1cnn(-c2nc(N)c3ncn([C@@H]4O[C@H](CO)[C@@H](O)[C@H]4O)c3n2)c1 [CVT-3146, (1-{9-[(4S,2R,3R,5R)-3,4-dihydroxy-5-(hydroxymethyl)oxolan-2-yl]-6-aminopurin-2-yl}pyrazol-4-yl)-N-methylcarboxamide], the “more potent than adenosine (Ado) in increasing coronary blood flow velocity (CBFv)” value (awake dogs) was > 100 fold, the “summed scores following stress, quantitative methods of analysis” value ([1]; SPECT MPI, 4D MSPECT, CVT-3146 400 or 500 mcg IV bolus, A infusion) was 13.6±1.6 and the “summed scores following stress, visual” value ([1]; SPECT MPI, 17-segment model, CVT-3146 400 or 500 mcg IV bolus, A infusion) was 13.2±1.3. The “regional concordance for ischemia extent” value [1, 3] was 86.3%, the “regional concordance for ischemia severity” value [1, 3] was 83.4% and the “increase in HR” value (awake rats; CVT-3146 alone) was 27±3%. For the same compound, the “decrease in BP” value (awake rats; CVT-3146 alone (comparison with ZM241385)) was 14±3%, the “BP (change)” value (awake rats; CVT-3146 alone (comparison with hexamethonium)) was -11±2% and the Vc ([2]; Dose 1 µg/kg, N=3) was 9.84 (4.12) L. The Vc ([2]; Dose 3 µg/kg, N=4) was 13.7 (6.06) L, the Vc ([2]; Dose 10 µg/kg, N=4) was 17.9 (6.11) L and the Vc ([2]; Dose 20 µg/kg, N=8) was 12.5 (5.83) L. For the same compound, the Vc ([2]; Dose 30 µg/kg, N=3) was 15.7 (4.59) L, the Vc ([2]; Total (doses 1-30 µg/kg), N=22) was 13.8 (5.67) L and the Vd ([2]; human, plasma, 1 ug/kg, N=3) was 69 L. For the same compound, the half-life ([2]; human, plasma, 1 ug/kg, N=3, read-out: a Half-life) was 2.14 min, the half-life ([2]; human, plasma, 1 ug/kg, N=3, read-out: β Half-life) was 8.93 min and the half-life ([2]; human, plasma, 1 ug/kg, N=3, read-out: λ Half-life) was 99 min. For the same compound, the Vd ([2]; human, plasma, 3 ug/kg, N=4) was 90 L, the half-life ([2]; human, plasma, 3 ug/kg, N=4, read-out: a Half-life) was 3.11 min and the half-life ([2]; human, plasma, 3 ug/kg, N=4, read-out: β Half-life) was 17.2 min. The half-life ([2]; human, plasma, 3 ug/kg, N=4, read-out: λ Half-life) was 130 min, the Vd ([2]; human, plasma, 10 ug/kg, N=4) was 101 L and the half-life ([2]; human, plasma, 10 ug/kg, N=4, read-out: a Half-life) was 4.15 min. The half-life ([2]; human, plasma, 10 ug/kg, N=4, read-out: β Half-life) was 50.2 min, the half-life ([2]; human, plasma, 10 ug/kg, N=4, read-out: λ Half-life) was 132 min and the Vd ([2]; human, plasma, 20 ug/kg, N=8) was 75.2 L. The half-life ([2]; human, plasma, 20 ug/kg, N=8, read-out: a Half-life) was 4.69 min, the half-life ([2]; human, plasma, 20 ug/kg, N=8, read-out: β Half-life) was 32.6 min and the half-life ([2]; human, plasma, 20 ug/kg, N=8, read-out: λ Half-life) was 117 min. It also gave a Vd ([2]; human, plasma, 30 ug/kg, N=3) of 89.6 L, a half-life ([2]; human, plasma, 30 ug/kg, N=3, read-out: a Half-life) of 3 min and a half-life ([2]; human, plasma, 30 ug/kg, N=3, read-out: β Half-life) of 14 min. For the same compound, the half-life ([2]; human, plasma, 30 ug/kg, N=3, read-out: λ Half-life) was 99.4 min, the Vd ([2]; human, plasma, Total (doses 1-30 µg/kg), N=22) was 75.3 L and the half-life ([2]; human, plasma, Total (doses 1-30 µg/kg), N=22, read-out: a Half-life) was 3.73 min. The half-life ([2]; human, plasma, Total (doses 1-30 µg/kg), N=22, read-out: β Half-life) was 27.2 min, the half-life ([2]; human, plasma, Total (doses 1-30 µg/kg), N=22, read-out: λ Half-life) was 86.4 min and the clearance ([2]; male, human, plasma, 1 ug/kg, N=3) was 737 mL/min. For the same compound, the clearance ([2]; male, human, plasma, 3 ug/kg, N=4) was 668 mL/min, the clearance ([2]; male, human, plasma, 10 ug/kg, N=4) was 841 mL/min and the clearance ([2]; male, human, plasma, 20 ug/kg, N=8) was 743 mL/min. The clearance ([2]; male, human, plasma, 30 ug/kg, N=3) was 1020 mL/min, the clearance ([2]; male, human, plasma, Total (doses 1-30 µg/kg), N=22) was 768 mL/min and the Tmax ([2]; male, human, plasma, IV bolus, supine, read-out: observed Tmax) was 1 to 4 min. For the same compound, the serious adverse events (healthy volunteers; IV bolus 0.1 to 30 µg/kg) was “no serious adverse events”, the “Number of Subjects with AE: Dizziness” value (healthy volunteers; [4]) was 1 and the “Number of Subjects with AE: Palpitation” value (healthy volunteers; [4]) was 0. For the same compound, the “Number of Subjects with AE: Syncope” value (healthy volunteers; [4]) was 1, the “Number of Subjects with AE: Dizziness” value (healthy volunteers; severe in intensity, 30 µg/kg Supine, 4 subjects per group) was 0 and the solubility (solubility in water) was ~50 µg/mL (≈ 128 µM).

— patent EP1708721B1, “MYOCARDIAL PERFUSION IMAGING USING ADENOSINE RECEPTOR AGONISTS” (Gilead Sciences, Inc., priority 2004, dated 2005)
